Measured values: the supplement of paper PMC10290057
Counter-ions that a name gives are not always drawn.

Experiments:
[1] = test system: HCT116; test: AC50 cell viability (CellTiter-Glo); higher = less potent; conditions: 48 h
[2] = test system: HCT116; test: efficacy (fitted maximal change in viability relative to DMSO control); higher = less cytotoxic (negative = loss of viability); conditions: 48 h
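Wherever AC50 cell viability (CellTiter-Glo) is given: HCT116 colorectal carcinoma cells screened at five concentrations per compound, luminescent viability scaled between DMSO wells and empty wells on each plate, curves fitted per compound.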
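Wherever efficacy (fitted maximal change in viability relative to DMSO control) is given: Luminescence-based viability readout, five doses per compound, normalized against on-plate DMSO and empty-well controls, followed by dose-response curve fitting for every drug.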

Row | Structure (SMILES) | AC50 cell viability [1] | efficacy [2]
1 | COc1ccc(-c2nc(N3CCOCC3)c3sc(CN(C)c4ncc(C(=O)NO)cn4)cc3n2)cn1 [CUDC-907] | 0.0372 µM | -96.8%
2 | O=C(c1ccc(F)cc1)N1CCC[C@H](c2nc(-c3ccc(F)cc3)no2)C1 | 14.8 µM | -35.7%
3 | CNC(=O)C1=CC=C(C)C(=C1)N2C(=C/C(=C(/Br)C2=O)OCC3=C(F)C=C(F)C=C3)\C | 16.6 µM | -41.4%
4 | Cc1noc2c1-c1ccccc1C(c1ccc(Cl)cc1)=N[C@H]2CC(N)=O [CPI-0610] | 1.05 µM | -65.4%
5 | Cc1c(CN2CCN(C(=O)[C@H](C)O)CC2)sc2c(N3CCOCC3)nc(-c3cnc(N)nc3)nc12 [GDC-0980] | 0.525 µM | -57.1%
6 | CCNC(=O)c1noc(-c2cc(C(C)C)c(O)cc2O)c1-c1ccc(CN2CCOCC2)cc1 [NVP-AUY922] | 0.105 µM | -63.2%
7 | COc1ccc(C(=O)c2c(C)n(CCN3CCOCC3)c3ccccc23)cc1 [Pravadoline] | 1.32 µM | -67.1%
8 | CC(C)(O)/C=C\C(=O)[C@](C)(O)[C@H]1[C@H](O)C[C@]2(C)[C@@H]3CC=C4[C@@H](C=C(O)C(=O)C4(C)C)[C@]3(C)C(=O)C[C@@]12C [Cucurbitacin I] | 0.166 µM | -77.1%
9 | CNc1nc(Nc2cnn([C@H]3CCN(C4COC4)C[C@@H]3F)c2Cl)ncc1C(F)(F)F [GNE-9605] | 4.68 µM | -51.4%
10 | O[C@H]1CC[C@@H](Oc2cccc3cnc(Nc4ccc5nc[nH]c5c4)nc23)CC1 [NCB-1026] | 0.525 µM | -64.6%
11 | C=CC(=O)N1CCC(C2CCNc3c(C(N)=O)c(-c4ccc(Oc5ccccc5)cc4)nn32)CC1 (centres undefined) [BGB-3111] | 18.6 µM | -62.4%
12 | COc1cccc2c1C(=O)c1c(O)c3c(c(O)c1C2=O)C[C@@](O)(/C(CO)=N/NC(=O)CCCCCN1C(=O)C=CC1=O)C[C@@H]3O[C@H]1C[C@H](N)[C@H](O)[C@H](C)O1 [Aldoxorubicin hydrochlorid] | 2.35 µM | -73.6%
13 | N#Cc1ccnc(Nc2cc(C3CCN(C4COC4)CC3)cc(N3CCC(F)(F)C3)n2)c1 [GNE-3511] | 0.833 µM | -77.1%
14 | c1ccc(-c2cc(CCC3CCNCC3)c3ccccc3n2)cc1 [Pipequaline] | 16.6 µM | -108%
15 | [O-][S+]1(=O)/N=C(/NC2=CC(=CC=C2)NC(=O)CCl)C3=CC=CC=C13 [NMS-859] | 26.3 µM | -85.1%
16 | CNC(=O)c1ccccc1Nc1nc(Nc2ccc(N3CCOCC3)cc2OC)ncc1Cl [NVP-TAE226] | 0.833 µM | -77.8%
17 | ONC(=O)C1=CC=C(C=C1)C/2=N/C3=CC=CC=C3OC4=C2C=CC=C4 [HDACi-01] | 2.95 µM | -85.9%
18 | COc1cc([C@@H]2c3cc4c(cc3[C@@H](O[C@@H]3O[C@@H]5CO[C@@H](C)O[C@H]5[C@H](O)[C@H]3O)[C@H]3COC(=O)[C@H]23)OCO4)cc(OC)c1O [Etoposide] | 2.95 µM | -41.9%
19 | Cc1nc(Nc2ncc(C(=O)Nc3c(C)cccc3Cl)s2)cc(N2CCN(CCO)CC2)n1 [Dasatinib] | 14.8 µM | -81.1%

Row | Structure (SMILES) | AC50 cell viability [1] | efficacy [2]
20 | C[C@@H](Nc1cc(F)cc(F)c1)c1cc(C(=O)N(C)C)cc2c(=O)cc(N3CCOCC3)oc12 [AZD-8186] | 10.5 µM | -78.7%
21 | C/C=C(/C)C(=O)O[C@H]1C(C)=C2[C@H]([C@@H]1OC(=O)CCCCCCC)[C@@](C)(OC(C)=O)C[C@H](OC(=O)CCC)[C@@]1(O)[C@H]2OC(=O)[C@@]1(C)O [Thapsigargin] | 0.0525 µM | -93.2%
22 | CN(C)c1ccc2cc(C(=O)N[C@@H](CCCNC(=N)CCl)C(=O)NCc3ccccc3)ccc2c1 [YW3-56] | 20.9 µM | -56.2%
23 | CC#C[C@@H](CC(=O)O)c1ccc(OCc2cccc(-c3ccc(C(F)(F)F)cc3)c2)cc1 [AMG-837] | 20.9 µM | -40.8%
24 | CC(C)[C@]12O[C@H]1[C@@H]3O[C@@]34[C@@]5(C)CC\C6=C(COC6=O)/[C@@H]5C[C@@H]7O[C@]47C2=O [Triptonide] | 0.0295 µM | -59.2%
25 | CNC(=O)c1ccc2c(c1)NC(=O)/C2=C(\Nc1cccc(CN(C)C)c1)c1ccccc1 | 18.6 µM | -93.1%
26 | Nc1nc2ccc(OC(F)(F)F)cc2s1 [Riluzole] | 10.5 µM | -59.1%
27 | CC1(C)OCCn2c1nc1c(N3CCOCC3)nc(-c3cnc(N)nc3)nc12 [GDC-0084] | 0.833 µM | -58.4%
28 | NC(CO)(CO)CCc1ccc(Sc2cccc(OCc3ccccc3)c2)cc1Cl [KRP-203] | 7.42 µM | -92.6%
29 | O=[N+]([O-])c1ccc(O)c2ncccc12 [Nitroxoline] | 10.5 µM | -96.2%
30 | COc1cc(OC2CCN(C)CC2)ccc1Nc1ncc2c(n1)n(C1CCCC1)c(=O)n2C [AZ-3146] | 5.9 µM | -102%
31 | COc1ccccc1[C@H](c1cccc2ccccc12)[C@@](C)(C#N)C(=O)N1CCC(c2cccc(C(F)(F)F)c2)CC1 | 0.833 µM | -39.8%
32 | CNC(=O)c1c(F)cccc1Nc1nc(Nc2cc3c(cc2OC)CCN3C(=O)CN(C)C)nc2[nH]ccc12 | 5.25 µM | -131%
33 | Oc1ccc(C2CCN(c3ccnc4ccccc34)CC2)cc1O | 11.8 µM | -49%
34 | CN1CCN(CC1)C2=NC3=C(C=CC=C3)C(=N2)C/4=C(/C(=O)NC4=O)C5=C[NH]C6=C5C=CC=C6 [Sotrastaurin] | 23.5 µM | -83.5%
35 | Cc1cccc(-c2[nH]c(C(C)(C)C)nc2-c2ccc3c(c2)OCO3)n1 | 2.95 µM | -86.6%
36 | CC[C@@H](C)Nc1cc(C(=O)NC2CC3CC[C@@H](C2)N3c2ccc(C(=O)C3CC3)cn2)c(C)cc1C(N)=O (some centres undefined) [XL-888] | 0.0833 µM | -59.7%
37 | Cn1cc(/C=C/C(=O)c2cccc(F)c2)cc1/C=C/C(=O)NO [MC-1568] | 14.8 µM | -49.8%
38 | COc1cc(Nc2c(C#N)cnc3cc(OCCCN4CCN(C)CC4)c(OC)cc23)c(Cl)cc1Cl [Bosutinib] | 4.68 µM | -93.7%

Row | Structure (SMILES) | AC50 cell viability [1] | efficacy [2]
39 | CC[C@@]1(O)C(=O)OCC/2=C1/C=C/3N(CC4=C(CCNC(C)C)C5=CC=CC=C5N=C34)C2=O [Belotecan] | 0.0166 µM | -80.8%
40 | Nc1ncnc2c1c(-c1cccc(OCc3ccccc3)c1)cn2[C@H]1C[C@@H](CN2CCC2)C1 [NVP-AEW541] | 5.9 µM | -85.2%
41 | CC(NC1=CC=CC=C1)C\2=C\C(=C/N3C(=O)\C=C(/N=C23)N4CCOCC4)C (centres undefined) [TGX-221] | 18.6 µM | -44.2%
42 | c1nc2c(NC3CCCCC3)nc(Nc3ccc(N4CCOCC4)cc3)nc2[nH]1 [Reversine] | 6.61 µM | -114%
43 | CCN(CC)Cc1ccc2cc(COC(=O)Nc3ccc(C(=O)NO)cc3)ccc2c1 [Givinostat hydrochloride] | 0.263 µM | -88.8%
44 | CCOc1cc2ncc(C#N)c(Nc3ccc(OCc4ccccn4)c(Cl)c3)c2cc1NC(=O)/C=C/CN(C)C [Neratinib] | 2.35 µM | -72.5%
45 | NC\1=N\C(=O)N(\C=C1)[C@@H]2O[C@H](CO)[C@@H](O)[C@@H]2O [Cytarabine] | 0.0742 µM | -61.7%
46 | COC(=O)N[C@@H](C)CNc1nccc(-c2cn(C(C)C)nc2-c2cc(Cl)cc(N[S+](C)(=O)[O-])c2F)n1 [Encorafenib] | 4.17 µM | -52.7%
47 | [2H]C([2H])([2H])C(O)([C@@H](C)/C=C/[C@@H](C)[C@H]1CC[C@H]2/C(=C/C=C3C[C@@H](O)C[C@H](O)C3)CCC[C@]12C)C([2H])([2H])[2H] [Paricalcitol-D6 (ABT-358)] | 18.6 µM | -54%
48 | CC(=O)C\1=C(/C)C2=CN=C(NC3=CC=C(C=N3)N4CCNCC4)N=C2N(C5CCCC5)C1=O [Palbociclib] | 16.6 µM | -109%
49 | CN(C)C/C=C/C(=O)Nc1cccc(C(=O)Nc2cccc(Nc3ncc(Cl)c(-c4c[nH]c5ccccc45)n3)c2)c1 [THZ-2] | 0.0934 µM | -78.8%
50 | CCCCCCCOc1ccc(CCC(N)(CO)CO)cc1C(F)(F)F [Amiselimod hydrochloride] | 10.5 µM | -96.7%
51 | COc1cc(C(=O)NC2CCN(C)CC2)ccc1Nc1ncc2c(n1)N(C1CCCC1)CCC(=O)N2C(C)C | 14.8 µM | -107%
52 | C[N+](C)(C)CC(=O)O [Betaine] | 20.9 µM | -51.8%
53 | O=C(Nc1cccc(Br)c1)c1cccc([S+](=O)([O-])N2CCCCCC2)c1 [Ak-7] | 14.8 µM | -59.7%
54 | O=C(Nc1cnccc1Cl)N1CCN(Cc2ccc3c(c2)OC(F)(F)O3)CC1 | 14.8 µM | -56.5%
55 | CCC(=O)N1CCN(CC1)C2=C(C=C(C=C2)N3C(=O)\C=C/C4=C3C5=CC(=CC=C5N=C4)C6=CN=C7C=CC=CC7=C6)C(F)(F)F [Torin-1] | 0.0723 µM | -60%
56 | CC\1=C(C(\N=C(/N1)C2=CC(=NC=C2)Cl)C3=C(F)C=C(Cl)C=C3)/C(=O)NC4=C(F)C=C5[NH]N=CC5=C4 (centres undefined) [GSK-25] | 29.5 µM | -97.8%
57 | CCOC1=CC(=CC=C1C/2=N/[C@@](C)(C3=CC=C(Cl)C=C3)[C@](C)(N2C(=O)N4CCN(CC4)CC(=O)N5CCOCC5)C6=CC=C(Cl)C=C6)C(C)(C)C | 9.17 µM | -114%
